From patent US20140057915A1, “KINASE INHIBITORS” (TOPIVERT PHARMA LIMITED, priority 2012, published 2014)
Like-named read-outs stand apart in the source and are kept apart here.

Assays:
cSrc = cSrc (Homo sapiens, UniProt P12931); test: c-Src enzyme inhibition (FRET); assay type: biochemical
How it was run: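 Kinase activity is measured on a dual-labelled synthetic peptide by FRET. ATP is supplied as an 800 μM solution for c-Src and a 60 μM solution for Syk. Compound is tested at four added concentrations, 4 to 0.004 μg/mL.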

HRV16 in MRC5 cells = test: HRV16 induced CPE in MRC5 cells; assay type: cell-based; conditions: Human rhinovirus sp., HRV-16
Description: (j) Assessment of HRV16 Induced CPE in MRC5 Cells
MRC-5 cells are infected with HRV16 at an MOI of 1n DMEM containing 5% FCS and 1.5 mM magnesium chloride, followed by incubation for 1 hr at 33° C. to promote adsorption. The supernatants are aspirated, and then fresh media added followed by incubation for 4 days. Where appropriate, cells are pre-incubated with compound or DMSO for 2 hr, and the compounds and DMSO added again after washout of the virus.
After washing, 1% SDS in distilled water (100 μL) is added to each well, and the plates are shaken lightly for 1-2 hr prior to reading the absorbance at 660 nm. The percentage inhibition for each well is calculated. The IC50 value is calculated from the concentration-response curve generated by the serial dilutions of the test compounds.

d-U937 cells = test: Cell viability: MTT assay; assay type: cell-based, human; conditions: 1 μg/mL
How it was run: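 MTT reduction (1 h, DMSO solubilisation, A550) measured after compound treatment at 1 or 10 μg/mL of differentiated U937 cells for 4 h (5% FCS RPMI1640) or 24 h (10% FCS). Percentage viability loss computed relative to 0.5% DMSO vehicle, with increases tabulated as negative values.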

[1] = system: IL-8 release, d-U937 cells; test: LPS-induced IL-8 release in d-U937 cells; assay type: cell-based; conditions: Homo sapiens, dU937
How it was run: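 IL-8 release after a 4 hr challenge with LPS (0.1 μg/mL, E. coli 0111:B4) following a 2 hr compound pretreatment. Cells were human U937 monocytes differentiated to macrophage-type with PMA 100 ng/mL for 48–72 hr. Relative 50% effective concentration derived from concentration–response data.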

[2] = system: TNFα release, d-U937 cells; test: LPS-induced TNFα release in d-U937 cells; assay type: cell-based; conditions: Homo sapiens, dU937; for EC50: relative to 10 μg/mL BIRB796, Table 4c1, read-out: LPS Induced Release of Cytokine in d-U937 Cells, TNFα REC50; for IC50: Table 4c2, different laboratory, read-out: IC50 Values for Inhibition of Cytokine Release, dU937 cells, TNFα
How it was run: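 Sandwich ELISA quantifies cytokine in supernatants after 4 hr LPS challenge (0.1 μg/mL) of PMA-differentiated (100 ng/mL, 48–72 hr) U937 macrophages given compound 2 hr beforehand. REC50 derived from concentration-response curve, inhibition calculated relative to vehicle.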

PBMC cells = test: Cell mitosis assay; assay type: cell-based; conditions: Homo sapiens, read-out: % Inhibition of mitosis in PBMC cells at 5 μg/mL
How it was run: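 Healthy-donor PBMCs (3 million cells per sample) stimulated with 2% PHA for 48 hr, then exposed 20 hr to varying compound concentrations. Demecolcine (0.1 μg/mL) added 2 hr before collection to arrest cells in metaphase; read by flow cytometry gated on lymphocytes.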

IL-2 release, PBMCs = test: IL-2 release in CD3/CD28 stimulated PBMC cells; assay type: cell-based; conditions: Homo sapiens, read-out: IC50 Values for Inhibition of Cytokine Release, PBMCs, IL-2
[3] = Table 4c1, read-out: LPS Induced Release of Cytokine in d-U937 Cells, IL-8 IC50
[4] = Table 4a2, different laboratory
[5] = Table 4c2, different laboratory, read-out: IC50 Values for Inhibition of Cytokine Release, dU937 cells, IL-8

Chain of cSrc (P12931 whole entry): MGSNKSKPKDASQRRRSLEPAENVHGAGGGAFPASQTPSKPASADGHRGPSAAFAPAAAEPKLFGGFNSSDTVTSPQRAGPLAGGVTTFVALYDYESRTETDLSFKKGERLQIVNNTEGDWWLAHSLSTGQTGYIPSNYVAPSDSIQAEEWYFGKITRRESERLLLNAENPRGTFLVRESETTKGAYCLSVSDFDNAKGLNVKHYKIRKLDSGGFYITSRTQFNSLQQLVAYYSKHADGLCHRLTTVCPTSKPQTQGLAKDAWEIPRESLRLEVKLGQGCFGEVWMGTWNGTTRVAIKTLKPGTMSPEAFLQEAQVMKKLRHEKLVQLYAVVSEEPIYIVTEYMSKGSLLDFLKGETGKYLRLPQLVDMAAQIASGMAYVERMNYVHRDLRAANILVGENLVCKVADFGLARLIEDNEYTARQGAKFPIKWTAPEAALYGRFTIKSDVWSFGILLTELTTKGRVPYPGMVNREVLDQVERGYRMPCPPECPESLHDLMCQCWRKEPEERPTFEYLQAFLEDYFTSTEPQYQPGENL

Row | Structure (SMILES) | IC50 (cSrc; Table 4a1) [nM] | IC50 [1, 3] [nM] | EC50 [2] [nM] | IC50 (cSrc; [4]) [nM] | IC50 [2] [nM] | IC50 [1, 5] [nM] | IC50 (HRV16 in MRC5 cells) [nM] | Cell viability at time point in d-U937 cells, 4 h (d-U937 cells) | Cell viability at time point in d-U937 cells, 24 h (d-U937 cells) | inhibition at 5 µg/mL (PBMC cells) [%] | IC50 (IL-2 release, PBMCs) [nM]
1 | COc1ccc(-n2nc(C(C)(C)C)cc2NC(=O)Nc2ccc(Oc3ccnc(Nc4cc(Br)cc(C(N)=O)c4)n3)c3ccccc23)cc1 [Example 42, 3-bromo-5-((4-((4-(3-(3-(tert-butyl)-1-(4-methoxyphenyl)-1H-pyrazol-5-yl)ureido)naphthalen-1-yl)oxy)pyrimidin-2-yl)amino)benzamide] | 20 | 2 | 1.5 | – | – | – | 2.2 | −ve (−ve and +ve indicate that the value is below and above respectively, the no significant effect threshold, defined as 30% inhibition at 1 μg/mL at the time point indicated) | −ve (−ve and +ve indicate that the value is below and above respectively, the no significant effect threshold, defined as 30% inhibition at 1 μg/mL at the time point indicated) | 12.9 | –
2 | COCCNC(=O)c1cc(Nc2nccc(Oc3ccc(NC(=O)Nc4cc(C(C)C)nn4-c4ccc(OC)cc4)c4ccccc34)n2)cc(OC)c1 [Example 11, 3-((4-((4-(3-(3-Isopropyl-1-(4-methoxyphenyl)-1H-pyrazol-5-yl)ureido)naphthalen-1-yl)oxy)pyrimidin-2-yl)amino)-5-methoxy-N-(2-methoxyethyl)benzamide] | 8 | 1.3 | 0.2 | 15 | 0.3 | – | – | −ve (−ve and +ve indicate that the value is below and above respectively, the no significant effect threshold, defined as 30% inhibition at 1 μg/mL at the time point indicated) | −ve (−ve and +ve indicate that the value is below and above respectively, the no significant effect threshold, defined as 30% inhibition at 1 μg/mL at the time point indicated) | 50.7 | 27.5
3 | C#Cc1cc(Nc2nccc(Oc3ccc(NC(=O)Nc4cc(C(C)(C)C)nn4-c4ccc(OC)cc4)c4ccccc34)n2)cc(C(=O)NCCN2CCOCC2)c1 [Example 77, 3-((4-((4-(3-(3-(tert-Butyl)-1-(4-methoxyphenyl)-1H-pyrazol-5-yl)ureido)-naphthalen-1-yl)oxy)pyrimidin-2-yl)amino)-5-ethynyl-N-(2-morpholinoethyl)benzamide] | – | – | – | 12 | 0.4 | 0.9 | – | – | – | -0.3 | 42.8
4 | C#Cc1cc(Nc2nccc(Oc3ccc(NC(=O)Nc4cc(C(C)(C)C)nn4-c4ccc(N(C)C)cc4)c4ccccc34)n2)cc(C(=O)NCCN2CCOCC2)c1 [Example 80, 3-((4-((4-(3-(3-(tert-Butyl)-1-(4-(dimethylamino)phenyl)-1H-pyrazol-5-yl)ureido)naphthalen-1-yl)oxy)pyrimidin-2-yl)amino)-5-ethynyl-N-(2-morpholinoethyl)-benzamide] | – | – | – | 19 | 0.3 | 0.5 | – | – | – | 10.4 | 2.3

The next lines start with results.

Row | IC50 (cSrc; Table 4a1) [nM] | IC50 [1, 3] [nM] | EC50 [2] [nM] | IC50 (cSrc; [4]) [nM] | IC50 [2] [nM] | IC50 [1, 5] [nM] | Structure (SMILES) | IC50 (HRV16 in MRC5 cells) [nM] | Cell viability at time point in d-U937 cells, 4 h (d-U937 cells) | Cell viability at time point in d-U937 cells, 24 h (d-U937 cells) | inhibition at 5 µg/mL (PBMC cells) [%] | IC50 (IL-2 release, PBMCs) [nM]
5 | < 1 | 2.3 | 5.2 | – | – | – | COc1ccc(-n2nc(C3(C)COC3)cc2NC(=O)Nc2ccc(Oc3ccnc(Nc4cccc(C(=O)NCCN5CCOCC5)c4)n3)c3ccccc23)cc1 [Example 23, 3-((4-((4-(3-(1-(4-methoxyphenyl)-3-(3-methyloxetan-3-yl)-1H-pyrazol-5-yl)ureido)naphthalen-1-yl)oxy)pyrimidin-2-yl)amino)-N-(2-morpholinoethyl)benzamide] | 22.3 | −ve (−ve and +ve indicate that the value is below and above respectively, the no significant effect threshold, defined as 30% inhibition at 1 μg/mL at the time point indicated) | −ve (−ve and +ve indicate that the value is below and above respectively, the no significant effect threshold, defined as 30% inhibition at 1 μg/mL at the time point indicated) | 35.6 | –
6 | 13 | 1.5 | 0.2 | 27 | 2.7 | – | Cc1ccc(-n2nc(C(C)C)cc2NC(=O)Nc2ccc(Oc3ccnc(Nc4cc(C(=O)NCCN5CCOCC5)cc(C(F)(F)F)c4)n3)c3ccccc23)cc1 [Example 7, 3-((4-((4-(3-(3-isopropyl-1-(p-tolyl)-1H-pyrazol-5-yl)ureido)naphthalen-1-yl)oxy)pyrimidin-2-yl)amino)-N-(2-morpholinoethyl)-5-(trifluoromethyl)benzamide] | – | −ve (−ve and +ve indicate that the value is below and above respectively, the no significant effect threshold, defined as 30% inhibition at 1 μg/mL at the time point indicated) | −ve (−ve and +ve indicate that the value is below and above respectively, the no significant effect threshold, defined as 30% inhibition at 1 μg/mL at the time point indicated) | 20.6 | 260
7 | < 1 | 8 | 5.2 | – | – | – | COc1cc(Nc2nccc(Oc3ccc(NC(=O)Nc4cc(C5CC5)nn4-c4ccc(C)cc4)c4ccccc34)n2)cc(C(=O)NCCN2CCOCC2)c1 [Example 50, 3-((4-((4-(3-(3-cyclopropyl-1-(p-tolyl)-1H-pyrazol-5-yl)ureido)naphthalen-1-yl)oxy)pyrimidin-2-yl)amino)-5-methoxy-N-(2-morpholinoethyl)benzamide] | 6.8 | −ve (−ve and +ve indicate that the value is below and above respectively, the no significant effect threshold, defined as 30% inhibition at 1 μg/mL at the time point indicated) | −ve (−ve and +ve indicate that the value is below and above respectively, the no significant effect threshold, defined as 30% inhibition at 1 μg/mL at the time point indicated) | – | –
8 | – | – | – | 14 | 1.1 | 2.4 | C#Cc1cc(Nc2nccc(Oc3ccc(NC(=O)Nc4cc(C(C)C)nn4-c4ccc(C)cc4)c4ccccc34)n2)cc(C(=O)NCCN2CCOCC2)c1 [Example 46, 3-ethynyl-5-((4-((4-(3-(3-isopropyl-1-(p-tolyl)-1H-pyrazol-5-yl)ureido)naphthalen-1-yl)oxy)pyrimidin-2-yl)amino)-N-(2-morpholinoethyl)benzamide] | – | −ve (−ve and +ve indicate that the value is below and above respectively, the no significant effect threshold, defined as 30% inhibition at 1 μg/mL at the time point indicated) | −ve (−ve and +ve indicate that the value is below and above respectively, the no significant effect threshold, defined as 30% inhibition at 1 μg/mL at the time point indicated) | -6.7 | 59.5
9 | < 1 | 0.6 | 1 | – | – | – | COc1cc(Nc2nccc(Oc3ccc(NC(=O)Nc4cc(C5(C)CC5)nn4-c4ccc(C)cc4)c4ccccc34)n2)cc(C(=O)NCCN2CCOCC2)c1 [Example 51, 3-methoxy-5-((4-((4-(3-(3-(1-methylcyclopropyl)-1-(p-tolyl)-1H-pyrazol-5-yl)ureido)naphthalen-1-yl)oxy)pyrimidin-2-yl)amino)-N-(2-morpholinoethyl)benzamide] | 1.9 | −ve (−ve and +ve indicate that the value is below and above respectively, the no significant effect threshold, defined as 30% inhibition at 1 μg/mL at the time point indicated) | −ve (−ve and +ve indicate that the value is below and above respectively, the no significant effect threshold, defined as 30% inhibition at 1 μg/mL at the time point indicated) | 20 | –
